Experimental data from ChEMBL document CHEMBL1201862, “PubChem BioAssay data set” (2004).
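Compound exposure: 48 hours, 5 concentrations, 96-well plates. Abbreviation: GI50, concentration required for 50% inhibition of growth.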 Active and inactive are the calls of the source. Cut-off read from the data, not from the text of the source: active = GI50 up to about 1.1 µM and inactive = higher.

Columns and labels:
Assay in all cases: NCI-60 cell line screen, 48 h
Malme-3M = test system: Malme-3M
IGROV-1 = test system: IGROV-1
HCT-15 = test system: HCT-15
SK-MEL-28 = test system: SK-MEL-28
UACC-257 = test system: UACC-257
COLO 205 = test system: COLO 205
EKVX = test system: EKVX
OVCAR-8 = test system: OVCAR-8
LOX IMVI = test system: LOX IMVI
ACHN = test system: ACHN
CCRF-CEM = test system: CCRF-CEM
K562 = test system: K562
SK-OV-3 = test system: SK-OV-3
M14 = test system: M14
HCT-116 = test system: HCT-116
RXF 393 = test system: RXF 393

Row | Compound | GI50 (Malme-3M) | GI50 (IGROV-1) | GI50 (HCT-15) [µM] | GI50 (SK-MEL-28) | GI50 (UACC-257) | GI50 (COLO 205) | GI50 (EKVX) | GI50 (OVCAR-8) | GI50 (LOX IMVI) | GI50 (ACHN) | GI50 (CCRF-CEM) | GI50 (K562) | GI50 (SK-OV-3) | GI50 (M14) | GI50 (HCT-116) | GI50 (RXF 393)
1 | COc1ccc2c(c1)[n+]([O-])c(-c1ccc(OC)c(OC)c1)c(N)[n+]2[O-] | 46.3 µM (inactive) | > 100 µM (inactive) | 37.2 | 25.4 µM (inactive) | 31 µM (inactive) | 18.7 µM (inactive) | > 100 µM (inactive) | > 100 µM (inactive) | > 100 µM (inactive) | 51.3 µM (inactive) | 84.1 µM (inactive) | 72.1 µM (inactive) | > 100 µM (inactive) | 57.4 µM (inactive) | – | –
2 | COc1ccccc1NC(=O)CC(=O)NNCC(=O)Nc1nc(-c2ccccc2)cs1 | – | > 100 µM (inactive) | – | > 100 µM (inactive) | – | > 100 µM (inactive) | > 100 µM (inactive) | > 100 µM (inactive) | > 100 µM (inactive) | – | > 100 µM (inactive) | > 100 µM (inactive) | > 100 µM (inactive) | > 100 µM (inactive) | > 100 µM (inactive) | > 100 µM (inactive)
3 | NC(=O)C12C3C4C1C1C2C3C41C(N)=O (configuration not stated) | – | > 100 µM (inactive) | > 100 | > 100 µM (inactive) | > 100 µM (inactive) | > 100 µM (inactive) | > 100 µM (inactive) | > 100 µM (inactive) | > 100 µM (inactive) | > 100 µM (inactive) | > 100 µM (inactive) | > 100 µM (inactive) | > 100 µM (inactive) | > 100 µM (inactive) | > 100 µM (inactive) | > 100 µM (inactive)
4 | Cc1nc2ccccc2c(=O)n1/N=C(\N=N\c1ccc(Cl)cc1)c1cccc(-c2ccco2)c1 | – | 31.3 µM (inactive) | 30.2 | 16.8 µM (inactive) | – | 31.8 µM (inactive) | 51.8 µM (inactive) | 33.1 µM (inactive) | 28.9 µM (inactive) | 30.5 µM (inactive) | 24.6 µM (inactive) | 22.3 µM (inactive) | 30.3 µM (inactive) | 34.1 µM (inactive) | 19.1 µM (inactive) | 20.3 µM (inactive)
5 | Nc1ccc(C(=O)NN2C(=O)C(Cl)C2c2cccc(O)c2)cc1 (configuration not stated) | 20.3 µM (inactive) | 14.4 µM (inactive) | 12.7 | 16.9 µM (inactive) | 18.3 µM (inactive) | 17.1 µM (inactive) | 21.5 µM (inactive) | 19.9 µM (inactive) | 3.85 µM (inactive) | 17.5 µM (inactive) | 5.55 µM (inactive) | 10.8 µM (inactive) | 19.5 µM (inactive) | 19.4 µM (inactive) | 4.4 µM (inactive) | –
6 | c1ccc(NCn2cnc3ccccc32)cc1 | > 100 µM (inactive) | > 100 µM (inactive) | 15.6 | > 100 µM (inactive) | > 100 µM (inactive) | > 100 µM (inactive) | > 100 µM (inactive) | > 100 µM (inactive) | 8.18 µM (inactive) | 68.4 µM (inactive) | 37.1 µM (inactive) | 20.8 µM (inactive) | > 100 µM (inactive) | – | 74.1 µM (inactive) | > 100 µM (inactive)
7 | O[C@H]1[C@H]2[C@H](O)CCCN2C[C@H]1O [TRIDOLGOSIR] | > 100 µM (inactive) | > 100 µM (inactive) | > 100 | > 100 µM (inactive) | > 100 µM (inactive) | > 100 µM (inactive) | > 100 µM (inactive) | > 100 µM (inactive) | > 100 µM (inactive) | > 100 µM (inactive) | 85.3 µM (inactive) | – | > 100 µM (inactive) | > 100 µM (inactive) | > 100 µM (inactive) | > 100 µM (inactive)
8 | COC(=O)C1=C(C(=O)OC)C23C=CC=CC24C(C(=O)OC)=C(C(=O)OC)C4C1C3 (configuration not stated) | > 100 µM (inactive) | > 100 µM (inactive) | 59.8 | > 100 µM (inactive) | 50.2 µM (inactive) | > 100 µM (inactive) | > 100 µM (inactive) | > 100 µM (inactive) | – | > 100 µM (inactive) | 69.7 µM (inactive) | 30.5 µM (inactive) | – | > 100 µM (inactive) | 77.1 µM (inactive) | > 100 µM (inactive)
9 | NC1C[C@H](n2cc(/C=C/Br)c(=O)[nH]c2=O)C[C@@H]1CO (some centres not stated) | – | – | > 100 | > 100 µM (inactive) | > 100 µM (inactive) | > 100 µM (inactive) | > 100 µM (inactive) | > 100 µM (inactive) | > 100 µM (inactive) | > 100 µM (inactive) | > 100 µM (inactive) | > 100 µM (inactive) | > 100 µM (inactive) | > 100 µM (inactive) | – | > 100 µM (inactive)
10 | CCOC(=O)C(=Cc1cc(OC)ccc1OC)C(=O)OCC | 10.9 µM (inactive) | 23.8 µM (inactive) | 5.71 | 4.71 µM (inactive) | – | 4.88 µM (inactive) | 10.6 µM (inactive) | 4.72 µM (inactive) | 3.83 µM (inactive) | 11.9 µM (inactive) | 2.95 µM (inactive) | 3.42 µM (inactive) | 15.8 µM (inactive) | 11.6 µM (inactive) | 14.4 µM (inactive) | 1.83 µM (inactive)
11 | O=C(CC1(O)C(=O)Nc2ccc([N+](=O)[O-])cc21)c1ccncc1 (configuration not stated) | 21.8 µM (inactive) | – | 83.8 | 32.3 µM (inactive) | 17.9 µM (inactive) | 77.1 µM (inactive) | > 100 µM (inactive) | 46.2 µM (inactive) | 15.5 µM (inactive) | 43.3 µM (inactive) | 29 µM (inactive) | 20.5 µM (inactive) | > 100 µM (inactive) | 51.6 µM (inactive) | 30.8 µM (inactive) | 14.8 µM (inactive)
12 | Fc1ccc(C2SCc3nc4ccccc4n32)cc1F (configuration not stated) | 25.9 µM (inactive) | 33.5 µM (inactive) | 35.7 | 23.4 µM (inactive) | 42.1 µM (inactive) | 27.6 µM (inactive) | 39.2 µM (inactive) | 33.8 µM (inactive) | – | 30 µM (inactive) | 34.1 µM (inactive) | 24.2 µM (inactive) | 46.5 µM (inactive) | 25.7 µM (inactive) | 26.8 µM (inactive) | 24.2 µM (inactive)
13 | O=C(CSSCC(=O)OCCS(=O)(=O)Nc1ccc(Br)cc1)OCCS(=O)(=O)Nc1ccc(Br)cc1 | 3.8 µM (inactive) | 17.3 µM (inactive) | 14.5 | 21.7 µM (inactive) | 9.46 µM (inactive) | 11.6 µM (inactive) | 26.5 µM (inactive) | 10.4 µM (inactive) | 7.18 µM (inactive) | 18 µM (inactive) | 7.66 µM (inactive) | 10.4 µM (inactive) | 18.9 µM (inactive) | 12.8 µM (inactive) | – | 3.23 µM (inactive)
14 | Cc1cc2c(c(C(=O)O)c1C)-c1cccc(F)c1C2=O | > 100 µM (inactive) | > 100 µM (inactive) | > 100 | > 100 µM (inactive) | > 100 µM (inactive) | > 100 µM (inactive) | > 100 µM (inactive) | > 100 µM (inactive) | > 100 µM (inactive) | > 100 µM (inactive) | > 100 µM (inactive) | > 100 µM (inactive) | > 100 µM (inactive) | > 100 µM (inactive) | – | 66.7 µM (inactive)
